Format in all cases: nucleic-acid assay
Assay [1] has as its system Nucleic Acid. The assay can be described thus: Cu(II) complex for cleavage of phi X174 RF plasmid DNA from intact form I to nicked form II at 250 uM compound and 200 uM Cu(II).
Assay [2] has as its system Nucleic Acid. As to the kind of experiment: Cu(II) complex for cleavage of phi X174 RF plasmid DNA from intact form I to nicked form II at 250 uM compound and 100 uM Cu(II).
The test system of assay [3] is Nucleic Acid. The assay can be described thus: Cu(II) complex for cleavage of phi X174 RF plasmid DNA from intact form I to nicked form II at 350 uM of Cu(II).

Some results are limits rather than exact numbers.

On to H-GGHGYSPTSPSYGK-NH2, for which the results for the Activity in the assay with Nucleic Acid [1], in the assay on Nucleic Acid [2] and with Nucleic Acid [3] were 70%, 50% and > 90%, respectively.

For the origin of these results see ChEMBL document CHEMBL1126982, “Design and synthesis of a DNA-cleaving metallopeptide” (Bioorg Med Chem Lett, 1993).
